Experimental data published in patent US10758534B2 (Vertex Pharmaceuticals Incorporated, priority 2014, dated 2020).

Target: T1, F508del (Homo sapiens, UniProt P13569, DEL508-508)
T1 construct: expressed in transfected cells
Test: Protocol 1: membrane potential optical assay (FLIPR III, voltage sensing dye), identification of potentiator compounds
Type: cell-based
Conditions: Table 3, compounds of Table 1
Source text: Membrane Potential Optical Methods for Assaying F508del Modulation Properties of Compounds
The assay utilizes fluorescent voltage sensing dyes to measure changes in membrane potential using a fluorescent plate reader (e.g., FLIPR III, Molecular Devices, Inc.) as a readout for increase in functional F508del in NIH 3T3 cells. The driving force for the response is the creation of a chloride ion gradient in conjunction with channel activation by a single liquid addition step after the cells have previously been treated with compounds and subsequently loaded with a voltage sensing dye.
Identification of Potentiator Compounds
To identify potentiators of F508del, a double-addition HTS assay format was developed. This HTS assay utilizes fluorescent voltage sensing dyes to measure changes in membrane potential on the FLIPR III as a measurement for increase in gating (conductance) of F508del in temperature-corrected F508del NIH 3T3 cells. The driving force for the response is a Cl^− ion gradient in conjunction with channel activation with forskolin in a single liquid addition step using a fluorescent plate reader such as FLIPR III after the cells have previously been treated with potentiator compounds (or DMSO vehicle control) and subsequently loaded with a redistribution dye.
Bath Solution #1: (in mM) NaCl 160, KCl 4.5, CaCl2 2, MgCl2 1, HEPES 10, pH 7.4 with NaOH.
Chloride-free bath solution: Chloride salts in Bath Solution #1 (above) are substituted with gluconate salts.
NIH3T3 mouse fibroblasts stably expressing F508del are used for optical measurements of membrane potential. The cells are maintained at 37° C. in 5% CO2 and 90% humidity in Dulbecco's modified Eagle's medium supplemented with 2 mM glutamine, 10% fetal bovine serum, 1×NEAA, β-ME, 1× pen/strep, and 25 mM HEPES in 175 cm^2 culture flasks. For all optical assays, the cells were seeded at ˜20,000/well in 384-well matrigel-coated plates and cultured for 2 hrs at 37° C. before culturing at 27° C. for 24 hrs. for the potentiator assay. For the correction assays, the cells are cultured at 27° C. or 37° C. with and without compounds for 16-24 hours.

T1 sequence (P13569 with tags, fused parts or gaps DEL508-508): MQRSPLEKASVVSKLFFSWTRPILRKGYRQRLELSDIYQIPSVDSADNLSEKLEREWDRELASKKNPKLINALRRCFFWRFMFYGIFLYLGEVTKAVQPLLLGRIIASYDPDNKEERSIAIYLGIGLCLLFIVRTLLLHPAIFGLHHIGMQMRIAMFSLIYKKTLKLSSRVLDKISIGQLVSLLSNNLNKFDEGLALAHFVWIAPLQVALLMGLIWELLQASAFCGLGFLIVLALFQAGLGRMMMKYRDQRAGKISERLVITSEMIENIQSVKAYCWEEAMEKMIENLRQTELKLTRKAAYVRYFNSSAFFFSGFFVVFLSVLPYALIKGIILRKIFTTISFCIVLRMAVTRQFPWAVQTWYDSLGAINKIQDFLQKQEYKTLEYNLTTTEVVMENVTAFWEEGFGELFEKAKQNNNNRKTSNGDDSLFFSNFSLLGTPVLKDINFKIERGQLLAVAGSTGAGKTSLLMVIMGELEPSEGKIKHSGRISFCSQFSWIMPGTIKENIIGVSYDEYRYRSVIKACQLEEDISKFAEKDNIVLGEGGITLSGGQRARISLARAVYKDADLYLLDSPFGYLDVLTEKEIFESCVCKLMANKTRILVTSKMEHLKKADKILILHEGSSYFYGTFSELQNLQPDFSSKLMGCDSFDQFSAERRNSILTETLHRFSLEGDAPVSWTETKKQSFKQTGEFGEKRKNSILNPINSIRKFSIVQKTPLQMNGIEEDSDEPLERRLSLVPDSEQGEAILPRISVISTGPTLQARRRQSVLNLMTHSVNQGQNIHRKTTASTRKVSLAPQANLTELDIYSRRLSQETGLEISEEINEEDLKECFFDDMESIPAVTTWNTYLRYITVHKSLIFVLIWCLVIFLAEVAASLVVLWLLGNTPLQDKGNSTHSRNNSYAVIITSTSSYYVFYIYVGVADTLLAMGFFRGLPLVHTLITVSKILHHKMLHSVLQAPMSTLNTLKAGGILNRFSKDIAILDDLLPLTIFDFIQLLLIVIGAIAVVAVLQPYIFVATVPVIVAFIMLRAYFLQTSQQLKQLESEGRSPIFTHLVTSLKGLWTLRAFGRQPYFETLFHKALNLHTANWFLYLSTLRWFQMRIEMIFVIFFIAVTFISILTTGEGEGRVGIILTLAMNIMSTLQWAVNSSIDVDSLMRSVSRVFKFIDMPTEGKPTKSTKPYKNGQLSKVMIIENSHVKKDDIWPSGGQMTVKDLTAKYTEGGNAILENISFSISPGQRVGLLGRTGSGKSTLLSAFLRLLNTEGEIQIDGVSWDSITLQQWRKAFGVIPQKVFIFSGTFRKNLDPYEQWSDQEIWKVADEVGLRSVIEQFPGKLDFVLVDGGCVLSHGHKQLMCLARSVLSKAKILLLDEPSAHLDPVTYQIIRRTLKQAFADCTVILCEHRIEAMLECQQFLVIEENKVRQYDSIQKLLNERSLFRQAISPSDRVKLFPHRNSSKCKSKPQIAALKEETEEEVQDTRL

Row | SMILES | EC30
1 | Cc1cc(C)c(Oc2nc(-c3cc(OCC(C)C)ccc3Cl)ccc2C(=O)NS(=O)(=O)c2ccc[nH]c2=O)c(C)c1 [Compound 1201, 6-(2-chloro-5-isobutoxy-phenyl)-N-[(2-oxo-1H-pyridin-3-yl)sulfonyl]-2-(2,4,6-trimethylphenoxy)pyridine-3-carboxamide] | +++ (“+++” means <3 uM)
2 | CC1CN(c2ncccc2C(=O)NS(=O)(=O)c2cccc(OCc3ccsc3)n2)C(C)(C)C1 (stereo not shown) [Compound 1992, N—[[6-(3-thienylmethoxy)-2-pyridyl]sulfonyl]-2-(2,2,4-trimethylpyrrolidin-1-yl)pyridine-3-carboxamide] | +++ (“+++” means <3 uM)
3 | C[C@@H]1CN(c2nc(C(C)(C)C)c(/C=C/C3CCCCC3)cc2C(=O)NS(=O)(=O)c2cccc(N)n2)C(C)(C)C1 [Compound 1484, N-[(6-amino-2-pyridyl)sulfonyl]-6-tert-butyl-5-[(E)-2-cyclohexylvinyl]-2-[(4S)-2,2,4-trimethylpyrrolidin-1-yl]pyridine-3-carboxamide] | +++ (“+++” means <3 uM)
4 | Cc1ccc(NCC(C)C)nc1-c1ccc(C(=O)NS(=O)(=O)c2cccc(N)n2)c(N2CC(C)CC2(C)C)n1 (stereo not shown) [Compound 1417, N-[(6-amino-2-pyridyl)sulfonyl]-6-[6-(isobutylamino)-3-methyl-2-pyridyl]-2-(2,2,4-trimethylpyrrolidin-1-yl)pyridine-3-carboxamide] | ++ (“++” means between 3 uM and 10 uM)
5 | CC(C)COc1cc(F)cc(-c2ccc(C(=O)NS(=O)(=O)c3cccc(N)n3)c(N3CCC4(CC3)CC4)n2)c1 [Compound 973, N-[(6-amino-2-pyridyl)sulfonyl]-2-(6-azaspiro[2.5]octan-6-yl)-6-(3-fluoro-5-isobutoxy-phenyl)pyridine-3-carboxamide] | +++ (“+++” means <3 uM)
6 | CCOc1cccc2c1CN(Cc1c(C)cc(C)cc1C)[C@@]2(C)C(=O)NS(=O)(=O)c1ccc[nH]c1=O [Compound 1476, (1R)-4-ethoxy-1-methyl-N-[(2-oxo-1H-pyridin-3-yl)sulfonyl]-2-[(2,4,6-trimethylphenyl)methyl]isoindoline-1-carboxamide] | +++ (“+++” means <3 uM)
7 | Cc1ccc(-c2ccc(C(=O)NS(=O)(=O)c3nccnc3N)c(NCC3(C)CCOCC3)n2)cc1 [Compound 1066, N-(3-aminopyrazin-2-yl)sulfonyl-2-[(4-methyltetrahydropyran-4-yl)methylamino]-6-(p-tolyl)pyridine-3-carboxamide] | ++ (“++” means between 3 uM and 10 uM)
8 | CC(C)COc1cc(F)cc(-c2ccc(C(=O)NS(=O)(=O)c3cccc(N)n3)c(OCCCc3cccnc3)n2)c1 [Compound 1691, N-[(6-amino-2-pyridyl)sulfonyl]-6-(3-fluoro-5-isobutoxy-phenyl)-2-[3-(3-pyridyl)propoxy]pyridine-3-carboxamide] | ++ (“++” means between 3 uM and 10 uM)
9 | CCC(CC)Oc1ccc(-c2ccc(C(=O)NS(=O)(=O)c3cccc(N)n3)c(N3CC(C)CC3(C)C)n2)cn1 (stereo not shown) [Compound 1076, N-[(6-amino-2-pyridyl)sulfonyl]-6-[6-(1-ethylpropoxy)-3-pyridyl]-2-(2,2,4-trimethylpyrrolidin-1-yl)pyridine-3-carboxamide] | +++ (“+++” means <3 uM)
10 | CC1CN(c2nc(C(C)(C)C)c(C3=CC(=O)CC(C)(C)C3)cc2C(=O)NS(=O)(=O)c2cccc(N)n2)C(C)(C)C1 (stereo not shown) [Compound 1405, N-[(6-amino-2-pyridyl)sulfonyl]-6-tert-butyl-5-(5,5-dimethyl-3-oxo-cyclohexen-1-yl)-2-(2,2,4-trimethylpyrrolidin-1-yl)pyridine-3-carboxamide] | +++ (“+++” means <3 uM)
11 | CC(C)Oc1ccc(-c2ccc(C(=O)NS(=O)(=O)c3cccc(N)n3)c(N3CCCC3Cc3ccccc3)n2)cn1 (stereo not shown) [Compound 994, N-[(6-amino-2-pyridyl)sulfonyl]-2-(2-benzylpyrrolidin-1-yl)-6-(6-isopropoxy-3-pyridyl)pyridine-3-carboxamide] | +++ (“+++” means <3 uM)
12 | CCN(CC)c1ncc(-c2ccc(C(=O)NS(=O)(=O)c3cccc(N)n3)c(N3C[C@@H](C)CC3(C)C)n2)cc1C [Compound 1915, N-[(6-amino-2-pyridyl)sulfonyl]-6-[6-(diethylamino)-5-methyl-3-pyridyl]-2-[(4S)-2,2,4-trimethylpyrrolidin-1-yl]pyridine-3-carboxamide] | +++ (“+++” means <3 uM)
13 | CC1CN(c2ncccc2C(=O)NS(=O)(=O)c2cccc(OC(C)(C)C)n2)C(C)(C)C1 (stereo not shown) [Compound 1718, N-[(6-tert-butoxy-2-pyridyl)sulfonyl]-2-(2,2,4-trimethylpyrrolidin-1-yl)pyridine-3-carboxamide] | +++ (“+++” means <3 uM)
14 | Cc1nc(OCC(C)C)ccc1-c1ccc(C(=O)NS(=O)(=O)c2cccc(N)n2)c(N2[C@H](C)CC[C@@H]2C)n1 [Compound 1537, N-[(6-amino-2-pyridyl)sulfonyl]-2-[(2R,5S)-2,5-dimethylpyrrolidin-1-yl]-6-(6-isobutoxy-2-methyl-3-pyridyl)pyridine-3-carboxamide] | +++ (“+++” means <3 uM)

Continued, values first:

Row | EC30 | SMILES
15 | +++ (“+++” means <3 uM) | Cc1cc(C)c(Oc2nc(-c3cccc(F)c3F)ccc2C(=O)NS(=O)(=O)c2cccc(N)n2)c(C)c1 [Compound 1244, N-[(6-amino-2-pyridyl)sulfonyl]-6-(2,3-difluorophenyl)-2-(2,4,6-trimethylphenoxy)pyridine-3-carboxamide]
16 | + (“+” means greater than 10 uM) | Cc1cc(C)c(Oc2nc(-c3ccnn3C)ccc2C(=O)NS(=O)(=O)c2cccc(N)n2)c(C)c1 [Compound 1057, N-[(6-amino-2-pyridyl)sulfonyl]-6-(2-methylpyrazol-3-yl)-2-(2,4,6-trimethylphenoxy)pyridine-3-carboxamide]
17 | ++ (“++” means between 3 uM and 10 uM) | CCOc1cc(-c2ccc(C(=O)NS(=O)(=O)c3ccc[nH]c3=O)c(Oc3c(C)cc(C)cc3C)n2)ccc1F [Compound 917, 6-(3-ethoxy-4-fluoro-phenyl)-N-[(2-oxo-1H-pyridin-3-yl)sulfonyl]-2-(2,4,6-trimethylphenoxy)pyridine-3-carboxamide]
18 | + (“+” means greater than 10 uM) | CC(C)(C)c1ccc(C(=O)NS(=O)(=O)c2cccc(N)c2)c(-c2ccc(F)c(F)c2)n1 [Compound 1217, N-(3-aminophenyl)sulfonyl-6-tert-butyl-2-(3,4-difluorophenyl)pyridine-3-carboxamide]
19 | +++ (“+++” means <3 uM) | CC1CN(c2nc(-c3ccc(OC(C)C)cc3)ccc2C(=O)NS(=O)(=O)c2cccc(N)n2)C(C)(C)C1 (stereo not shown) [Compound 1020, N-[(6-amino-2-pyridyl)sulfonyl]-6-(4-isopropoxyphenyl)-2-(2,2,4-trimethylpyrrolidin-1-yl)pyridine-3-carboxamide]
20 | +++ (“+++” means <3 uM) | Cc1cc(C)c(Oc2nc(N3[C@H](C)CC[C@@H]3C)ccc2C(=O)NS(=O)(=O)c2cccc(N)n2)c(C)c1 [Compound 1494, N-[(6-amino-2-pyridyl)sulfonyl]-6-[(2R,5S)-2,5-dimethylpyrrolidin-1-yl]-2-(2,4,6-trimethylphenoxy)pyridine-3-carboxamide]
21 | +++ (“+++” means <3 uM) | Cc1cc(C)c(Oc2nc(-c3ccc(OCc4ccccc4)cc3F)ccc2C(=O)NS(=O)(=O)c2cccc(N)n2)c(C)c1 [Compound 1113, N-[(6-amino-2-pyridyl)sulfonyl]-6-(4-benzyloxy-2-fluoro-phenyl)-2-(2,4,6-trimethylphenoxy)pyridine-3-carboxamide]
22 | +++ (“+++” means <3 uM) | Cc1cc(C)c(Oc2nc(-c3cnn(CCC(C)C)c3)ccc2C(=O)NS(=O)(=O)c2cccc(N)n2)c(C)c1 [Compound 1336, N-[(6-amino-2-pyridyl)sulfonyl]-6-(1-isopentylpyrazol-4-yl)-2-(2,4,6-trimethylphenoxy)pyridine-3-carboxamide]
23 | +++ (“+++” means <3 uM) | Cc1cc(C)c(Oc2nc(C)c(C)cc2C(=O)NS(=O)(=O)c2cccc(N)n2)c(C)c1 [Compound 841, N-[(6-amino-2-pyridyl)sulfonyl]-5,6-dimethyl-2-(2,4,6-trimethylphenoxy)pyridine-3-carboxamide]
24 | +++ (“+++” means <3 uM) | CC(C)Oc1ccc(-c2ccc(C(=O)NS(=O)(=O)c3cccc(N)n3)c(N3CC[C@@H](C)C3(C)C)n2)cn1 [Compound 992, N-[(6-amino-2-pyridyl)sulfonyl]-6-(6-isopropoxy-3-pyridyl)-2-[(3R)-2,2,3-trimethylpyrrolidin-1-yl]pyridine-3-carboxamide]
25 | +++ (“+++” means <3 uM) | Cc1cc(C)c(Oc2nc(C)ccc2C(=O)NS(=O)(=O)c2cccc(N(C)C)n2)c(C)c1 [Compound 1250, N-[[6-(dimethylamino)-2-pyridyl]sulfonyl]-6-methyl-2-(2,4,6-trimethylphenoxy)pyridine-3-carboxamide]
